Columns and labels:
Format in all cases: functional
HCT-116 = experiment: Cytotoxicity against human HCT116 cells after 48 hrs by sulforhodamine B assay; settings: HCT-116, 48 h
HT-29 = experiment: Cytotoxicity against human HT-29 cells after 48 hrs by sulforhodamine B assay; settings: HT-29, 48 h
SW-620 = experiment: Cytotoxicity against human SW620 cells after 48 hrs by sulforhodamine B assay; settings: SW-620, 48 h
HCT-15 = experiment: Cytotoxicity against human HCT15 cells after 48 hrs by sulforhodamine B assay; settings: HCT-15, 48 h
BT-549 = experiment: Cytotoxicity against human BT549 cells after 48 hrs by sulforhodamine B assay; settings: BT-549, 48 h
IGROV-1 = experiment: Cytotoxicity against human IGROV1 cells after 48 hrs by sulforhodamine B assay; settings: IGROV-1, 48 h
NCI-H226 = experiment: Cytotoxicity against human NCI-H226 cells after 48 hrs by sulforhodamine B assay; settings: NCI-H226, 48 h
NCI-H460 = experiment: Cytotoxicity against human NCI-H460 cells after 48 hrs by sulforhodamine B assay; settings: NCI-H460, 48 h
SN12C = experiment: Cytotoxicity against human SN12C cells after 48 hrs by sulforhodamine B assay
A549 = experiment: Cytotoxicity against human A549/ATCC cells after 48 hrs by sulforhodamine B assay; settings: A549, 48 h
HOP-62 = experiment: Cytotoxicity against human HOP62 cells after 48 hrs by sulforhodamine B assay; settings: HOP-62, 48 h
Malme-3M = experiment: Cytotoxicity against human MALME-3M cells after 48 hrs by sulforhodamine B assay
NCI-H23 = experiment: Cytotoxicity against human NCI-H23 cells after 48 hrs by sulforhodamine B assay; settings: NCI-H23, 48 h
KM12 = experiment: Cytotoxicity against human KM12 cells after 48 hrs by sulforhodamine B assay; settings: KM12, 48 h
SNB-75 = experiment: Cytotoxicity against human SNB75 cells after 48 hrs by sulforhodamine B assay; settings: SNB-75, 48 h
T47D = experiment: Cytotoxicity against human T47D cells after 48 hrs by sulforhodamine B assay
M14 = experiment: Cytotoxicity against human M14 cells after 48 hrs by sulforhodamine B assay; settings: M14, 48 h
ACHN = experiment: Cytotoxicity against human ACHN cells after 48 hrs by sulforhodamine B assay
HL-60(TB) = experiment: Cytotoxicity against human HL-60(TB) cells after 48 hrs by sulforhodamine B assay; settings: HL-60, 48 h
RXF 393 = experiment: Cytotoxicity against human RXF393 cells after 48 hrs by sulforhodamine B assay; settings: RXF 393, 48 h
OVCAR-5 = experiment: Cytotoxicity against human OVCAR5 cells after 48 hrs by sulforhodamine B assay; settings: OVCAR-5, 48 h
SF-295 = experiment: Cytotoxicity against human SF295 cells after 48 hrs by sulforhodamine B assay; settings: SF-295, 48 h
NCI/ADR-RES = experiment: Cytotoxicity against human NCI/ADR-RES cells after 48 hrs by sulforhodamine B assay
SNB-19 = experiment: Cytotoxicity against human SNB19 cells after 48 hrs by sulforhodamine B assay; settings: SNB-19, 48 h
SK-MEL-2 = experiment: Cytotoxicity against human SK-MEL-2 cells after 48 hrs by sulforhodamine B assay; settings: SK-MEL-2, 48 h
MDA-MB-231 = experiment: Cytotoxicity against human MDA-MB-231 cells after 48 hrs by sulforhodamine B assay; settings: MDA-MB-231, 48 h
TK-10 = experiment: Cytotoxicity against human TK10 cells after 48 hrs by sulforhodamine B assay; settings: TK-10, 48 h
MOLT-4 = experiment: Cytotoxicity against human MOLT4 cells after 48 hrs by sulforhodamine B assay; settings: MOLT-4, 48 h
SR = experiment: Cytotoxicity against human SR cells after 48 hrs by sulforhodamine B assay
MDA-MB-468 = experiment: Cytotoxicity against human MDA-MB-468 cells after 48 hrs by sulforhodamine B assay; settings: MDA-MB-468, 48 h
SK-MEL-28 = experiment: Cytotoxicity against human SK-MEL-28 cells after 48 hrs by sulforhodamine B assay; settings: SK-MEL-28, 48 h
UO-31 = experiment: Cytotoxicity against human UO31 cells after 48 hrs by sulforhodamine B assay; settings: UO-31, 48 h
CCRF-CEM = experiment: Cytotoxicity against human CCRF-CEM cells after 48 hrs by sulforhodamine B assay
MDA-MB-435 = experiment: Cytotoxicity against human MDA-MB-435 cells after 48 hrs by sulforhodamine B assay; settings: MDA-MB-435, 48 h
PC-3 = experiment: Cytotoxicity against human PC3 cells after 48 hrs by sulforhodamine B assay; settings: PC-3, 48 h
LOX IMVI = experiment: Cytotoxicity against human LOXIMVI cells after 48 hrs by sulforhodamine B assay
[1] = Cytotoxicity against human EKVX cells after 48 hrs by sulforhodamine B assay
OVCAR-4 = experiment: Cytotoxicity against human OVCAR4 cells after 48 hrs by sulforhodamine B assay; settings: OVCAR-4, 48 h
UACC-62 = experiment: Cytotoxicity against human UACC62 cells after 48 hrs by sulforhodamine B assay; settings: UACC-62, 48 h
MCF7 = experiment: Cytotoxicity against human MCF7 cells after 48 hrs by sulforhodamine B assay; settings: MCF7, 48 h
NCI-H522 = experiment: Cytotoxicity against human NCI-H522 cells after 48 hrs by sulforhodamine B assay; settings: NCI-H522, 48 h
[2] = Cytotoxicity against human Hs 578T cells after 48 hrs by sulforhodamine B assay
786-0 = experiment: Cytotoxicity against human 786-0 cells after 48 hrs by sulforhodamine B assay; settings: 786-0, 48 h
SK-OV-3 = experiment: Cytotoxicity against human SKOV3 cells after 48 hrs by sulforhodamine B assay; settings: SK-OV-3, 48 h
COLO 205 = experiment: Cytotoxicity against human COLO205 cells after 48 hrs by sulforhodamine B assay; settings: COLO 205, 48 h
DU-145 = experiment: Cytotoxicity against human DU145 cells after 48 hrs by sulforhodamine B assay; settings: DU-145, 48 h
SF-539 = experiment: Cytotoxicity against human SF539 cells after 48 hrs by sulforhodamine B assay; settings: SF-539, 48 h
HCC 2998 = experiment: Cytotoxicity against human HCC2998 cells after 48 hrs by sulforhodamine B assay; settings: HCC 2998, 48 h
OVCAR-8 = experiment: Cytotoxicity against human OVCAR8 cells after 48 hrs by sulforhodamine B assay; settings: OVCAR-8, 48 h
SK-MEL-5 = experiment: Cytotoxicity against human SK-MEL-5 cells after 48 hrs by sulforhodamine B assay; settings: SK-MEL-5, 48 h
OVCAR-3 = experiment: Cytotoxicity against human OVCAR3 cells after 48 hrs by sulforhodamine B assay; settings: OVCAR-3, 48 h
NCI-H322M = experiment: Cytotoxicity against human NCI-H322M cells after 48 hrs by sulforhodamine B assay
UACC-257 = experiment: Cytotoxicity against human UACC257 cells after 48 hrs by sulforhodamine B assay; settings: UACC-257, 48 h
K562 = experiment: Cytotoxicity against human K562 cells after 48 hrs by sulforhodamine B assay; settings: K562, 48 h
CAKI-1 = experiment: Cytotoxicity against human CAKI-1 cells after 48 hrs by sulforhodamine B assay; settings: CAKI-1, 48 h
U-251 = experiment: Cytotoxicity against human U251 cells after 48 hrs by sulforhodamine B assay; settings: U-251, 48 h
SF-268 = experiment: Cytotoxicity against human SF268 cells after 48 hrs by sulforhodamine B assay; settings: SF-268, 48 h
HOP-92 = experiment: Cytotoxicity against human HOP92 cells after 48 hrs by sulforhodamine B assay; settings: HOP-92, 48 h
A498 = experiment: Cytotoxicity against human A498 cells after 48 hrs by sulforhodamine B assay; settings: A498, 48 h

CCN(CC)c1ccc(/C=N/NC(=O)Cc2ccc(Nc3ccnc(C(F)(F)F)c3)cc2)c(O)c1
GI50 (HCT-116): 398 nM
GI50 (HT-29): 676 nM
GI50 (SW-620): 813 nM
GI50 (HCT-15): 407 nM
GI50 (BT-549): 1350 nM
GI50 (IGROV-1): 501 nM
GI50 (NCI-H226): 676 nM
GI50 (NCI-H460): 316 nM
GI50 (SN12C): 977 nM
GI50 (A549): 832 nM
GI50 (HOP-62): 501 nM
GI50 (Malme-3M): 1000 nM
GI50 (NCI-H23): 1050 nM
GI50 (KM12): 676 nM
GI50 (SNB-75): 2510 nM
GI50 (T47D): 631 nM
GI50 (M14): 525 nM
GI50 (ACHN): 398 nM
GI50 (HL-60(TB)): 339 nM
GI50 (RXF 393): 1000 nM
GI50 (OVCAR-5): 776 nM
GI50 (SF-295): 501 nM
GI50 (NCI/ADR-RES): 537 nM
GI50 (SNB-19): 525 nM
GI50 (SK-MEL-2): 4900 nM
GI50 (MDA-MB-231): 1120 nM
GI50 (TK-10): 417 nM
GI50 (MOLT-4): 501 nM
GI50 (SR): 251 nM
GI50 (MDA-MB-468): 389 nM
GI50 (SK-MEL-28): 813 nM
GI50 (UO-31): 389 nM
GI50 (CCRF-CEM): 316 nM
GI50 (MDA-MB-435): 912 nM
GI50 (PC-3): 2000 nM
GI50 (LOX IMVI): 398 nM
GI50 [1]: 398 nM
GI50 (OVCAR-4): 513 nM
GI50 (UACC-62): 398 nM
GI50 (MCF7): 407 nM
GI50 (NCI-H522): 575 nM
GI50 [2]: 2190 nM
GI50 (786-0): 437 nM
GI50 (SK-OV-3): 363 nM
GI50 (COLO 205): 437 nM
GI50 (DU-145): 813 nM
GI50 (SF-539): 479 nM
GI50 (HCC 2998): 646 nM
GI50 (OVCAR-8): 501 nM
GI50 (SK-MEL-5): 309 nM
GI50 (OVCAR-3): 794 nM
GI50 (NCI-H322M): 398 nM
GI50 (UACC-257): 1910 nM
GI50 (K562): 550 nM
GI50 (CAKI-1): 398 nM
GI50 (U-251): 501 nM
GI50 (SF-268): 537 nM
GI50 (HOP-92): 1740 nM
GI50 (A498): 5010 nM
